In ChEMBL document CHEMBL1152632, “Synthesis and evaluation of functionalized isoindigos as antiproliferative agents” (Bioorg Med Chem, 2009):
The source made the active and inactive calls. The calls are words filed in the database; no cut-off is given here.

Key:
[1] = biological target: Dual specificity mitogen-activated protein kinase kinase 1 (Homo sapiens) (UniProt Q02750); assay: Inhibition of MEK1 at 10 uM
[2] = biological target: Dual specificity mitogen-activated protein kinase kinase 2 (Homo sapiens) (UniProt P36507); assay: Inhibition of MEK2 at 10 uM
[3] = biological target: Hepatocyte growth factor receptor (Homo sapiens) (UniProt P08581); assay: Inhibition of MET at 10 uM
[4] = biological target: Mitogen-activated protein kinase 14 (Homo sapiens) (UniProt Q16539); assay: Inhibition of p38alpha at 10 uM
[5] = biological target: Mitogen-activated protein kinase 11 (Homo sapiens) (UniProt Q15759); assay: Inhibition of p38beta at 10 uM
[6] = biological target: Platelet-derived growth factor receptor alpha (Homo sapiens) (UniProt P16234); assay: Inhibition of PDGFRA at 10 uM
[7] = biological target: Platelet-derived growth factor receptor beta (Homo sapiens) (UniProt P09619); assay: Inhibition of PDGFRB at 10 uM
[8] = biological target: Phosphatidylinositol 4,5-bisphosphate 3-kinase catalytic subunit gamma isoform (Homo sapiens) (UniProt P48736); assay: Inhibition of PIK3CG at 10 uM
[9] = biological target: Serine/threonine-protein kinase pim-1 (Homo sapiens) (UniProt P11309); assay: Inhibition of PIM1 at 10 uM
[10] = biological target: Serine/threonine-protein kinase pim-2 (Homo sapiens) (UniProt Q9P1W9); assay: Inhibition of PIM2 at 10 uM
[11] = biological target: Serine/threonine-protein kinase pim-3 (Homo sapiens) (UniProt Q86V86); assay: Inhibition of PIM3 at 10 uM
[12] = biological target: Serine/threonine-protein kinase PLK4 (Homo sapiens) (UniProt O00444); assay: Inhibition of PLK4 at 10 uM
[13] = biological target: RAF proto-oncogene serine/threonine-protein kinase (Homo sapiens) (UniProt P04049); assay: Inhibition of RAF1 at 10 uM
[14] = biological target: Proto-oncogene tyrosine-protein kinase Src (Homo sapiens) (UniProt P12931); assay: Inhibition of SRC at 10 uM
[15] = biological target: SRSF protein kinase 3 (Homo sapiens) (UniProt Q9UPE1); assay: Inhibition of SRPK3 at 10 uM
[16] = biological target: TGF-beta receptor type-1 (Homo sapiens) (UniProt P36897); assay: Inhibition of TGFBR1 at 10 uM
[17] = biological target: Angiopoietin-1 receptor (Homo sapiens) (UniProt Q02763); assay: Inhibition of TIE2 at 10 uM
[18] = biological target: Non-receptor tyrosine-protein kinase TYK2 (Homo sapiens) (UniProt P29597); assay: Inhibition of TYK2 at 10 uM
[19] = biological target: Cyclin-dependent kinase 2/cyclin A (Homo sapiens) (UniProt P24941+P20248+P78396); assay: Inhibition of CDK2/cyclin A at 10 uM by IMAP assay; type: protein-complex assay
HL-60 = assay: Antiproliferative activity against human HL60 cells after 5 days by MTT assay; type: functional, cell-based; conditions: HL-60, 120 h
Huh-7 = assay: Antiproliferative activity against human HuH7 cells after 72 hrs by MTT assay; type: functional, cell-based; conditions: Huh-7, 72 h
[20] = Antiproliferative activity against human IMR90 cells after 72 hrs by MTT assay; type: cell-based; conditions: IMR-90, 72 h
[21] = biological target: Tyrosine-protein kinase ABL1 (Homo sapiens) (UniProt P00519); assay: Inhibition of ABL1 at 10 uM
[22] = biological target: Atypical kinase COQ8A, mitochondrial (Homo sapiens) (UniProt Q8NI60); assay: Inhibition of ADCK3 at 10 uM
[23] = biological target: ALK tyrosine kinase receptor (Homo sapiens) (UniProt Q9UM73); assay: Inhibition of ALK at 10 uM
[24] = biological target: Serine/threonine-protein kinase B-raf (Homo sapiens) (UniProt P15056); assay: Inhibition of BRAF at 10 uM
[25] = biological target: Tyrosine-protein kinase BTK (Homo sapiens) (UniProt Q06187); assay: Inhibition of BTK at 10 uM
[26] = biological target: Cyclin-dependent kinase 2 (Homo sapiens) (UniProt P24941); assay: Inhibition of CDK2 at 10 uM
[27] = biological target: Cyclin-dependent kinase 3 (Homo sapiens) (UniProt Q00526); assay: Inhibition of CDK3 at 10 uM
[28] = biological target: Cyclin-dependent kinase 7 (Homo sapiens) (UniProt P50613); assay: Inhibition of CDK7 at 10 uM
[29] = biological target: Cyclin-dependent kinase 9 (Homo sapiens) (UniProt P50750); assay: Inhibition of CDK9 at 10 uM
[30] = biological target: Serine/threonine-protein kinase Chk1 (Homo sapiens) (UniProt O14757); assay: Inhibition of CHEK1 at 10 uM
[31] = biological target: Macrophage colony-stimulating factor 1 receptor (Homo sapiens) (UniProt P07333); assay: Inhibition of CSF1R at 10 uM
[32] = biological target: Casein kinase I isoform gamma-2 (Homo sapiens) (UniProt P78368); assay: Inhibition of CSNK1G2 at 10 uM
[33] = biological target: Dual specificity tyrosine-phosphorylation-regulated kinase 1B (Homo sapiens) (UniProt Q9Y463); assay: Inhibition of DYRK1B at 10 uM
[34] = biological target: Epidermal growth factor receptor (Homo sapiens) (UniProt P00533); assay: Inhibition of EGFR at 10 uM
[35] = biological target: Receptor tyrosine-protein kinase erbB-2 (Homo sapiens) (UniProt P04626); assay: Inhibition of ERBB2 at 10 uM
[36] = biological target: Receptor tyrosine-protein kinase erbB-4 (Homo sapiens) (UniProt Q15303); assay: Inhibition of ERBB4 at 10 uM
[37] = biological target: Mitogen-activated protein kinase 3 (Homo sapiens) (UniProt P27361); assay: Inhibition of ERK1 at 10 uM
[38] = biological target: Fibroblast growth factor receptor 2 (Homo sapiens) (UniProt P21802); assay: Inhibition of FGFR2 at 10 uM
[39] = biological target: Fibroblast growth factor receptor 3 (Homo sapiens) (UniProt P22607); assay: Inhibition of FGFR3 at 10 uM
[40] = biological target: Insulin-like growth factor 1 receptor (Homo sapiens) (UniProt P08069); assay: Inhibition of IGF1R at 10 uM
[41] = biological target: Insulin receptor (Homo sapiens) (UniProt P06213); assay: Inhibition of INSR at 10 uM
[42] = biological target: Tyrosine-protein kinase JAK2 (Homo sapiens) (UniProt O60674); assay: Inhibition of JAK2 at 10 uM
[43] = biological target: Mast/stem cell growth factor receptor Kit (Homo sapiens) (UniProt P10721); assay: Inhibition of KIT at 10 uM
[44] = biological target: Receptor-type tyrosine-protein kinase FLT3 (Homo sapiens) (UniProt P36888); assay: Inhibition of FLT3 at 10 uM
[45] = biological target: Glycogen synthase kinase-3 beta (Homo sapiens) (UniProt P49841); assay: Inhibition of GSK3-beta at 10 uM
K562 = assay: cells; conditions: Homo sapiens, K562, 72 h
Description: Antiproliferative activity against human K562 cells after 72 hrs by MTT assay

HCT-116 = assay: cells; conditions: Homo sapiens, HCT-116, 72 h
Description: Antiproliferative activity against human HCT116 cells after 72 hrs by MTT assay

[46] = biological target: cAMP-dependent protein kinase catalytic subunit alpha (Homo sapiens) (UniProt P17612); assay: Inhibition of PKACalpha at 10 uM

Chain of Fibroblast growth factor receptor 2 (Homo sapiens) (P21802 22-821 limits assumed): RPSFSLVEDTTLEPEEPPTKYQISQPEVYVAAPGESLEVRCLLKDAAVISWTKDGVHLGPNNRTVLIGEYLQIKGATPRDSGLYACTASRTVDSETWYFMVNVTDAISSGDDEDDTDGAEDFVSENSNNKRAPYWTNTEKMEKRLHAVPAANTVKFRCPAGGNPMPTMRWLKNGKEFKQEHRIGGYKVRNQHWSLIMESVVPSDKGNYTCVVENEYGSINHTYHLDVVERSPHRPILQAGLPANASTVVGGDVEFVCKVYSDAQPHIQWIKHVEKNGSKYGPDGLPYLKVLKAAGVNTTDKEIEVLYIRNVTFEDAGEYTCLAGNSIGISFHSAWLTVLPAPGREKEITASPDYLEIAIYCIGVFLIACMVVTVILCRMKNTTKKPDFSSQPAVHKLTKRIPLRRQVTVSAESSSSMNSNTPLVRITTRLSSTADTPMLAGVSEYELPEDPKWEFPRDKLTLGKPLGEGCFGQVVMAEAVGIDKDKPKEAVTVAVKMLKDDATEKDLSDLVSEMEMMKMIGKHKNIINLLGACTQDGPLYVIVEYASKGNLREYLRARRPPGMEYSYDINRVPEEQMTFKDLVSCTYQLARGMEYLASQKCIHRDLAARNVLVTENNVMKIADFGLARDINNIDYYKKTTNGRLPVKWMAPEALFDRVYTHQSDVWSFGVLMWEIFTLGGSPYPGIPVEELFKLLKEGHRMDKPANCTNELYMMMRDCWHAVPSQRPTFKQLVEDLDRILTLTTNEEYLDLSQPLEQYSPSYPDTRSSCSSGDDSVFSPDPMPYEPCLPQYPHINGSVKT
Chain of RAF proto-oncogene serine/threonine-protein kinase (Homo sapiens) (P04049 whole entry): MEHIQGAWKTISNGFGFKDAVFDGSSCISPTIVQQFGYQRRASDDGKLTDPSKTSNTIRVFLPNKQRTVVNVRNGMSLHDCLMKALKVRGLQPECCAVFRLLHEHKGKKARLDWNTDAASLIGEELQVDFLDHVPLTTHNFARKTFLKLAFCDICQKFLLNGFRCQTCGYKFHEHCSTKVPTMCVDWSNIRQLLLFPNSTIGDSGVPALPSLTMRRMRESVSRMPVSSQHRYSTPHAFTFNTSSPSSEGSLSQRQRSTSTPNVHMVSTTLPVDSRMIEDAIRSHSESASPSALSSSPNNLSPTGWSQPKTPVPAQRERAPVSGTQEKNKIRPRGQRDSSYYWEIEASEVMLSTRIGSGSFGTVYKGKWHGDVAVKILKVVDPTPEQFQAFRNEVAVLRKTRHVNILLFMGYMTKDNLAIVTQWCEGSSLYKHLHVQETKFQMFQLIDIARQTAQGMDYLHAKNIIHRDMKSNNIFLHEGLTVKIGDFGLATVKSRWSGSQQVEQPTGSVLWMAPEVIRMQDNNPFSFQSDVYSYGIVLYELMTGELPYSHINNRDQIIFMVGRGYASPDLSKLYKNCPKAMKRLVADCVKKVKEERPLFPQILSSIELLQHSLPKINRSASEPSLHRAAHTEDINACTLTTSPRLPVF
Chain of Receptor tyrosine-protein kinase erbB-2 (Homo sapiens) (P04626 whole entry): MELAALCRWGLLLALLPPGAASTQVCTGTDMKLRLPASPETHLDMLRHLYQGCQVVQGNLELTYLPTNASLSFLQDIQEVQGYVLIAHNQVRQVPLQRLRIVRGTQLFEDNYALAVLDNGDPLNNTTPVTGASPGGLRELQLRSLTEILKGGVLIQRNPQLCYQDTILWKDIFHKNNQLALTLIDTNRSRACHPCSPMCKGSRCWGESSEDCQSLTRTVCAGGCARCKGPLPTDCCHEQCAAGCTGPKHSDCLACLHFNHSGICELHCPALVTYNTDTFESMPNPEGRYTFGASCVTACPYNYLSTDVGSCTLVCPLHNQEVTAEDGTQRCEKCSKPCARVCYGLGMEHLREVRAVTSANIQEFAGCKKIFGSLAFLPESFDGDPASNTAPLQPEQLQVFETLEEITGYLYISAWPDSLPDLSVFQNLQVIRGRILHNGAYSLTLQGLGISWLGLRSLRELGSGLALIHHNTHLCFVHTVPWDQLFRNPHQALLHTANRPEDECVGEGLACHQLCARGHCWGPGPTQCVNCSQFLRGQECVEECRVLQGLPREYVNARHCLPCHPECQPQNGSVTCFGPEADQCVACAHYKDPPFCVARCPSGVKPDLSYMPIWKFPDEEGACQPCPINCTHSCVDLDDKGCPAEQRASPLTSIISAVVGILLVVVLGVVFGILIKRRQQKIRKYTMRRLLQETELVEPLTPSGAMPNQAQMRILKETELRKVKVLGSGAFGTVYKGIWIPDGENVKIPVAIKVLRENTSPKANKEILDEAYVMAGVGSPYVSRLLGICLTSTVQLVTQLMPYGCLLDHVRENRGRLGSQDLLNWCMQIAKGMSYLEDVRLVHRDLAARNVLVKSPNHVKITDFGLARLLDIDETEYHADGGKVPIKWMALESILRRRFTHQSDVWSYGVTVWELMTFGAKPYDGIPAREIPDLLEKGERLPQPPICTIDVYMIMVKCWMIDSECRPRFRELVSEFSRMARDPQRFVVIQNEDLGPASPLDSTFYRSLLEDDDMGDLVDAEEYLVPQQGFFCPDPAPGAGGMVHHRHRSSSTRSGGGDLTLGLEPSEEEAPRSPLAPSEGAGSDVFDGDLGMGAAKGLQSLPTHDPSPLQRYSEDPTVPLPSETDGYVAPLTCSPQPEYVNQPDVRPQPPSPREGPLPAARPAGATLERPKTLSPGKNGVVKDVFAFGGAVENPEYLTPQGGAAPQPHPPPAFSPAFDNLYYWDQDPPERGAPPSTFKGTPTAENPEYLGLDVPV
Chain of TGF-beta receptor type-1 (Homo sapiens) (P36897 whole entry): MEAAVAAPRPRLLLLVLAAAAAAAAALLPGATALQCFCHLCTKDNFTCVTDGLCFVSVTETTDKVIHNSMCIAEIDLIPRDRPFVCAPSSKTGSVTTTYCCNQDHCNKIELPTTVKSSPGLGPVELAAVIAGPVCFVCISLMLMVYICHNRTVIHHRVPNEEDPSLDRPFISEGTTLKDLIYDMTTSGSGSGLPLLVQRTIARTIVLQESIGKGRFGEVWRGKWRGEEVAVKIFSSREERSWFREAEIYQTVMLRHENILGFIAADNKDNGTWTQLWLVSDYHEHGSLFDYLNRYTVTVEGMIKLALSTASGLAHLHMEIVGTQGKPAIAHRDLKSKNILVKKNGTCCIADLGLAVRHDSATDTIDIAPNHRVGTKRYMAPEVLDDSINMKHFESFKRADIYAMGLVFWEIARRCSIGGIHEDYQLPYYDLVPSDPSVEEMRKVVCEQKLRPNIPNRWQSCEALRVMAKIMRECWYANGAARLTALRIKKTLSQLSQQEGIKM
Chain of Serine/threonine-protein kinase Chk1 (Homo sapiens) (O14757 whole entry): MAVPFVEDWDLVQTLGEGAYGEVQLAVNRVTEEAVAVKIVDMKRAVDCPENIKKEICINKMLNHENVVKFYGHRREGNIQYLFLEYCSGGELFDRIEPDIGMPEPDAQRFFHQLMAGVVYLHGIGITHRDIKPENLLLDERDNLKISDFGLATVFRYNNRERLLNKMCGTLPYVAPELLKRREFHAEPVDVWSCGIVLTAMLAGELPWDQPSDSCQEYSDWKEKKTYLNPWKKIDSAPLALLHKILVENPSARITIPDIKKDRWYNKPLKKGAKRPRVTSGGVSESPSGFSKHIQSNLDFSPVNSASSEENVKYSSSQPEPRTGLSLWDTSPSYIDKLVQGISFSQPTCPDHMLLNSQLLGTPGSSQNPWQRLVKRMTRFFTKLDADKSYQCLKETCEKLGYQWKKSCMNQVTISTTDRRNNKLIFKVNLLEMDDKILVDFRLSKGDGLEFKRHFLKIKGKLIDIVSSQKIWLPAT
Chain of Dual specificity mitogen-activated protein kinase kinase 1 (Homo sapiens) (Q02750 whole entry): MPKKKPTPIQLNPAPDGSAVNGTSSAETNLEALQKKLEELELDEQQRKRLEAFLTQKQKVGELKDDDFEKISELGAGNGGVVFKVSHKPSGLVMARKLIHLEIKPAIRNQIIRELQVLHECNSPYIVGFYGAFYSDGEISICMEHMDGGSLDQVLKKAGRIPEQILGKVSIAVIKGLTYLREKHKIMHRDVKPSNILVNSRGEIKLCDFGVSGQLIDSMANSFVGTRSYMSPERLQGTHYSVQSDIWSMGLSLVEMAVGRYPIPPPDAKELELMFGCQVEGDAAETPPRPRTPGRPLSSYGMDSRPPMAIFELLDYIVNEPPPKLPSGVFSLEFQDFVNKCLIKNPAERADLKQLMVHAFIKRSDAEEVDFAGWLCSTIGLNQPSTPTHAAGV
Chain of Mitogen-activated protein kinase 11 (Homo sapiens) (Q15759 whole entry): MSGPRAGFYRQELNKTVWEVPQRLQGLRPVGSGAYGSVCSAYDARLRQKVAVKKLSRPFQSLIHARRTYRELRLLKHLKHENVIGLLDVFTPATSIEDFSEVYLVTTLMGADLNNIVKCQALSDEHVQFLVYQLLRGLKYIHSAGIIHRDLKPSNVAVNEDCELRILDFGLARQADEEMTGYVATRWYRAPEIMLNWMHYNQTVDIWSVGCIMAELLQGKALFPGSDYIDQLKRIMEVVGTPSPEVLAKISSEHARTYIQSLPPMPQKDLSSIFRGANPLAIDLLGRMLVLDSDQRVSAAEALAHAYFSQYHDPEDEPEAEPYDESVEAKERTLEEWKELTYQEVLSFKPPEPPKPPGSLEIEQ
Chain of Casein kinase I isoform gamma-2 (Homo sapiens) (P78368 whole entry, looked up, canonical isoform): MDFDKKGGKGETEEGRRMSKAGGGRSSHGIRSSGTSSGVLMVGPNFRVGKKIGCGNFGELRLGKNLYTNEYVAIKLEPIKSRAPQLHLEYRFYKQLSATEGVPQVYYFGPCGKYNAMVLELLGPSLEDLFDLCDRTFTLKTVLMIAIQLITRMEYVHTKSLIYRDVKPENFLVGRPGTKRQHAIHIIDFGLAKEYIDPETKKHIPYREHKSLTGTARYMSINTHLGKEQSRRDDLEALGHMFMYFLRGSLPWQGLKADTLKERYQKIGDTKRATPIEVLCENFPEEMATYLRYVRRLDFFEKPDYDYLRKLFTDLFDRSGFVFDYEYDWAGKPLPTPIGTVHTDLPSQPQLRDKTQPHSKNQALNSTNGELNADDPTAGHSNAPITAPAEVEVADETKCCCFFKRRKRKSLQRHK

Work on CN1C(=O)/C(=C2/C(=O)Nc3ccccc32)c2ccccc21 [MEISOINDIGO] yielded an inhibition [1] of 16%, an inhibition [2] of 0% and an inhibition [3] of 0%. It also gave an inhibition [4] of 0%, an inhibition [5] of 0% and an inhibition [6] of 0%. It also gave an inhibition [7] of 15%, an inhibition [8] of 0% and an inhibition [9] of 3%. The inhibition [10] was 2%, the inhibition [11] was 7% and the inhibition [12] was 12%. It also gave an inhibition [13] of 0%, an inhibition [14] of 15% and an inhibition [15] of 0%. It also gave an inhibition [16] of 0%, an inhibition [17] of 6% and an inhibition [18] of 8%. The inhibition [19] was “inactive”, the IC50 (HL-60) was 12.2 µM and the IC50 (Huh-7) was 18.3 µM. It also gave an IC50 [20] of 7.7 µM, an inhibition [21] of 11% and an inhibition [22] of 0%. The inhibition [23] was 0%, the inhibition [24] was 0% and the inhibition [25] was 0%. It also gave an inhibition [26] of 4%, an inhibition [27] of 0% and an inhibition [28] of 56%. It also gave an inhibition [29] of 0%, an inhibition [30] of 0% and an inhibition [31] of 0%. The inhibition [32] was 0%, the inhibition [33] was 0% and the inhibition [34] was 16%. The inhibition [35] was 0%, the inhibition [36] was 0% and the inhibition [37] was 0%. It also gave an inhibition [38] of 0%, an inhibition [39] of 4% and an inhibition [40] of 13%. It also gave an inhibition [41] of 10%, an inhibition [42] of 4% and an inhibition [43] of 8%. It also gave an inhibition [44] of 0%, an inhibition [45] of 16% and an IC50 (K562) of 6.7 µM. The IC50 (HCT-116) was 15.4 µM and the inhibition [46] was 0%.
